From PubChem BioAssay (NCI)
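Grown in 96-well plates, cells were treated for 48 hours with each compound at five concentrations. Insufficient inhibition: endpoint recorded as highest concentration tested. At the GI50, growth is halved. Definition used: TGI = concentration required for complete inhibition of growth.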

Tests used:
Assay in all cases: inhibition of tumour cell growth, NCI panel, 48 h
A549 NSCLC = tested on: A549 NSCLC
ACHN renal = tested on: ACHN renal
HCT-116 colon = tested on: HCT-116 colon
K-562 leukemia = tested on: K-562 leukemia
LOX IMVI melanoma = tested on: LOX IMVI melanoma
MALME-3M melanoma = tested on: MALME-3M melanoma
OVCAR-3 ovarian = tested on: OVCAR-3 ovarian
OVCAR-5 ovarian = tested on: OVCAR-5 ovarian
RPMI-8226 leukemia = tested on: RPMI-8226 leukemia
SNB-19 CNS = tested on: SNB-19 CNS

Row | Structure (SMILES) | TGI (A549 NSCLC) | TGI (ACHN renal) | TGI (HCT-116 colon) | TGI (K-562 leukemia) | TGI (LOX IMVI melanoma) | TGI (MALME-3M melanoma) | TGI (OVCAR-3 ovarian) | TGI (OVCAR-5 ovarian) | TGI (RPMI-8226 leukemia) | TGI (SNB-19 CNS) | GI50 (A549 NSCLC) | GI50 (ACHN renal) | GI50 (HCT-116 colon) | GI50 (K-562 leukemia) | GI50 (LOX IMVI melanoma) | GI50 (MALME-3M melanoma) | GI50 (OVCAR-3 ovarian) | GI50 (OVCAR-5 ovarian) | GI50 (RPMI-8226 leukemia) | GI50 (SNB-19 CNS)
1 | CC(=O)OC1CCC2OOC1O2 (configuration not stated) | > 100 µM | > 100 µM | > 100 µM | > 100 µM | > 100 µM | > 100 µM | > 100 µM | > 100 µM | > 100 µM | > 100 µM |  |  |  |  |  |  |  |  |  | 
2 | CCN1CCN(c2nc(C)cc(NCc3cc(Nc4ccnc5cc(Cl)ccc45)ccc3F)n2)CC1 | 13.9 µM | 7.4 µM | 2.75 µM | 4.95 µM | 2.34 µM | 3.66 µM | 4.93 µM | 6.71 µM | 4.32 µM | 13.1 µM | 3.54 µM | 2.47 µM | 1.01 µM | 0.663 µM | 1.02 µM | 1.78 µM | 1.96 µM | 2.2 µM | 0.981 µM | 2.91 µM
3 | Cc1ccc2c(c1)-c1c3c(nn1C)-c1ccccc1SC3O2 (configuration not stated) | > 100 µM | > 100 µM | > 100 µM | > 100 µM | > 100 µM | > 100 µM | > 100 µM | > 100 µM | > 100 µM |  |  |  |  |  |  |  |  |  |  | 
4 | Cc1nc2sc(C(=O)Nc3cccc(Br)c3C)c(N)c2cc1C(O)c1ccccc1 (configuration not stated) | > 100 µM | 14.3 µM | 11.8 µM | > 100 µM | 6.93 µM | 20.5 µM | 1.02 µM | > 60.2 µM | 7.08 µM | > 100 µM | 0.0466 µM | 0.0743 µM | 0.0371 µM | 0.0354 µM | 0.0496 µM | 0.1 µM | 0.032 µM | 0.061 µM | 0.0455 µM | 0.0598 µM
5 | Nc1ccccc1C#C/C=C\C#Cc1ccccc1C#CCO | > 50 µM | 18.3 µM | 24.7 µM | > 50 µM | 8.97 µM |  | 18.5 µM | > 50 µM | > 50 µM | > 50 µM | 11.2 µM | 6.11 µM | 8.3 µM | 11.1 µM | 1.36 µM |  | 6.63 µM | 16.8 µM | 24.3 µM | 23.9 µM
6 | O=C(Nc1ccncc1)C(=O)c1cn(S(=O)(=O)c2cccc(Cl)c2)c2ccccc12 | > 100 µM | 57.1 µM | 86.8 µM | > 100 µM | > 100 µM | > 100 µM | 23.4 µM | > 100 µM |  | > 100 µM | 22.4 µM | 7.58 µM | 3.1 µM | 2.5 µM | 4.72 µM | 18.7 µM | 4.12 µM | 11.5 µM |  | 27.5 µM
7 | O=C(Oc1ccccc1)N(c1ccccc1)c1ccccc1 | > 100 µM | > 100 µM | 76.8 µM | > 100 µM | 78.6 µM | 91.4 µM | > 100 µM | > 100 µM |  | > 100 µM | 26.2 µM | 28.8 µM | 18.6 µM | 25.8 µM | 19.9 µM | 25 µM | 23.7 µM | 45.9 µM |  | 40.7 µM
8 | CN(C)NC1=C([N+](=O)[O-])C=NN(c2ccccc2)C1 | 3.87 µM | 3.18 µM | 3.26 µM | 6.15 µM | 3.11 µM | 3.63 µM | 3.29 µM | 3.04 µM |  | 4.98 µM |  |  |  |  |  |  |  |  |  | 
9 | C=C1c2nc3ccccc3n2C=C(c2cccc(Cl)c2)N1Cc1ccc(OC)cc1 | > 100 µM | > 100 µM | 11.7 µM | 5.25 µM | 21.5 µM | 72 µM |  | > 30.9 µM | 5.75 µM | > 100 µM | 3.98 µM | 1.11 µM | 0.496 µM | 0.29 µM | 0.878 µM | 0.717 µM |  | 5.84 µM | 0.361 µM | 1.04 µM
10 | Cc1ccccc1NC(=O)Cc1nc2ccccc2s1 | 33.6 µM | 29.7 µM | 31 µM | 38.7 µM | 30.5 µM | 30 µM | 32 µM | 36.3 µM |  | > 100 µM |  |  |  |  |  |  |  |  |  | 
11 | COc1cc(C(=O)/C=C/c2cc(-c3ccc4c(c3)OCO4)n[nH]2)cc(OC)c1OC | 6.23 µM | 4.95 µM | 4.63 µM | > 100 µM |  | 4.69 µM | 3.5 µM | 9.6 µM | 2.53 µM | 11.7 µM | 2.13 µM | 2.2 µM | 1.9 µM | 2.17 µM |  | 1.85 µM | 1.71 µM | 2.63 µM | 0.506 µM | 2.34 µM
12 | COc1cc(-c2nn(-c3ccc(NC(=O)Nc4cc(C(F)(F)F)cc(C(F)(F)F)c4)cc3)cc2-c2ccncc2)ccc1Cl | 13 µM | 7.86 µM | 3.39 µM | > 100 µM |  |  | 3.88 µM | 5.16 µM |  | 3.88 µM | 2.47 µM | 1.94 µM | 1.65 µM | 2.48 µM |  |  | 1.46 µM | 1.91 µM |  | 1.8 µM
13 | COC(=O)c1c(O)ccc(O)c1C(C(C)=O)C(C)=O | > 100 µM |  | > 100 µM | > 100 µM | > 100 µM | > 100 µM | > 100 µM |  | > 100 µM | > 100 µM |  |  |  |  |  |  |  |  |  | 
14 | CC(=O)[CH-]C(=O)c1ccccc1.CC(=O)[CH-]C(=O)c1ccccc1.Cl.[O-]c1ccnc2ccccc12.[O-]c1ccnc2ccccc12.[Ti+4] |  | > 100 µM |  | > 100 µM | > 100 µM | > 100 µM | > 100 µM | > 100 µM | > 100 µM | > 100 µM |  | > 100 µM |  | > 100 µM | > 100 µM | > 100 µM | > 100 µM | > 100 µM | > 100 µM | > 100 µM
15 | Oc1ccc2c(=S)cc(-c3ccc(Br)cc3)oc2c1O |  | 11.8 µM | 9.73 µM | > 100 µM | 3.87 µM | 6.06 µM |  | 78 µM | 18.3 µM | > 100 µM | 3.26 µM | 2.35 µM | 2.22 µM | 2.47 µM | 1.18 µM | 1.87 µM |  | 5.83 µM | 1.32 µM | 2.95 µM
16 | CC(=Nc1ccc(N(C)C)cc1)c1ccccc1 | 81.9 µM | 77.1 µM | 30.6 µM | 74.7 µM |  | 25.9 µM | 32.2 µM | > 100 µM |  | > 100 µM |  |  |  |  |  |  |  |  |  | 
17 | Cc1cccc(NC(=O)C(=O)C(C2OC(=O)c3ccccc32)[N+](=O)[O-])c1C (configuration not stated) | 35.4 µM | 22.9 µM | 21.3 µM | 39.7 µM | 6.26 µM | 10.5 µM | 5.11 µM | 33.3 µM |  | 35.1 µM |  |  |  |  |  |  |  |  |  | 
18 | CN(C)c1ccc(/C=C(\C#N)c2cc3ccccc3[nH]2)cc1 | > 100 µM | > 100 µM | > 100 µM |  | > 100 µM | > 100 µM | 4.06 µM | > 100 µM | 4.91 µM | > 100 µM | 1.55 µM | 2.42 µM | 0.456 µM |  | 0.692 µM | 2.32 µM | 0.409 µM | 3.8 µM | 0.63 µM | 2.23 µM
19 | O=S1(=O)c2ccccc2N(c2ccccc2)c2nnnn21 | > 100 µM | > 100 µM | 86.9 µM | > 100 µM | 32.6 µM |  | 47.2 µM | > 100 µM |  | 88.5 µM |  |  |  |  |  |  |  |  |  | 
20 | CCC12C=CCN(CCc3c([nH]c4ccccc34)/C=C\1)C2 (configuration not stated) | > 100 µM | > 100 µM | > 100 µM | > 100 µM | > 100 µM | > 100 µM | > 100 µM |  | > 100 µM | > 100 µM |  |  |  |  |  |  |  |  |  | 
21 | COC(=O)C1=CC2C(=O)OC1C1C(=O)NC(=O)C21 (configuration not stated) | > 100 µM | > 100 µM | > 100 µM | > 100 µM | > 100 µM | > 100 µM | > 100 µM |  | > 100 µM | > 100 µM |  |  |  |  |  |  |  |  |  | 
22 | NC(=O)c1c(NC(=O)c2cccs2)sc2c1CCC(=O)C2 | > 100 µM | 8.88 µM | 13.7 µM | > 100 µM | 14.2 µM | 4.58 µM | 5.93 µM | 9.23 µM |  | > 100 µM | 3.5 µM | 2.16 µM | 1.7 µM | 0.736 µM | 2.44 µM | 1.85 µM | 1.8 µM | 2.68 µM |  | 3.49 µM
23 | Nc1cccc2c1-c1c(cccc1[N+](=O)[O-])C2=O | > 100 µM |  | > 100 µM | > 100 µM | > 100 µM | > 100 µM | > 100 µM | > 100 µM | > 100 µM | > 100 µM |  |  |  |  |  |  |  |  |  | 
24 | CCOC(=O)c1cc(=O)n(C)c(=O)n1C | > 100 µM | > 100 µM | > 100 µM | > 100 µM | > 100 µM | > 100 µM | > 100 µM | > 100 µM |  | > 100 µM |  |  |  |  |  |  |  |  |  | 
25 | COc1ccc(Cn2cc(COc3cc(/C=C/C(=O)c4cc(OC)c(OC)c(OC)c4)ccc3OC)nn2)cc1 | 47.5 µM | > 100 µM | > 100 µM | > 100 µM | > 100 µM | > 100 µM | 6.71 µM |  | 29.6 µM | > 100 µM | 3.09 µM | 4.47 µM | 3.36 µM | 3.13 µM | 3.22 µM | 25.7 µM | 2.62 µM |  | 2.58 µM | 5.99 µM
